Data on four compounds can be found in the NIST ThermoML archive (doi:10.1016/j.fluid.2016.11.022).

For series [1] the following is noted: Liquid; for self diffusion coefficient: NMR.
A short description of series [2]: xn = mol fraction of the nth substance listed. The following applies: 343.15 K, Liquid; for viscosity: Oscillating piston [Cambridge Applied Systems Model]; for molar volume: High-pressure cell with syringe pump.

± gives the expanded uncertainty stated by the source.

A word on the viscosity: it is the internal friction of a fluid under shear. Take `CCCCCC[n+]1ccn(C)c1.O=S(=O)([N-]S(=O)(=O)C(F)(F)F)C(F)(F)F`: the self diffusion coefficient came out at 1.79e-11 m2/s in series [1] (298.15 K, 100 kPa); 5.54e-11 m2/s in series [1] (323.15 K, 100 kPa); 1.07e-10 m2/s in series [1] (343.15 K, 100 kPa). Further, the viscosity in series [1] (343.15 K, 100 kPa, Oscillating piston [Cambridge Applied Systems Model]) was 14.07 ± 0.35 mPa·s.

On to `CCCCCC[n+]1ccn(C)c1.O=S(=O)([N-]S(=O)(=O)C(F)(F)F)C(F)(F)F` + FCC(F)(F)F, for which the viscosity in series [2] (100 kPa, x2 = 0) amounted to 14.07 ± 0.35 mPa·s.

As for `FCC(F)(F)F` [1,1,1,2-tetrafluoroethane], the self diffusion coefficient in series [1] (298.15 K, 670 kPa) was 5.95e-09 m2/s.

For `FCC(F)(F)F` [1,1,1,2-tetrafluoroethane] + CCCCCC[n+]1ccn(C)c1.O=S(=O)([N-]S(=O)(=O)C(F)(F)F)C(F)(F)F, the molar volume in series [2] (84 kPa, x1 = 0.0397) is 0.0003358 ± 3.2e-06 m3/mol; in series [2] (212 kPa, x1 = 0.1086), 0.0003159 ± 2.8e-06 m3/mol; in series [2] (395 kPa, x1 = 0.1956) it was 0.0002928 ± 2.6e-06 m3/mol; in series [2] (615 kPa, x1 = 0.2904) it was 0.0002669 ± 2.2e-06 m3/mol; in series [2] (971 kPa, x1 = 0.4272), 0.0002313 ± 1.8e-06 m3/mol; in series [2] (1320 kPa, x1 = 0.5508), 0.0001984 ± 1.4e-06 m3/mol. The molar volume is recorded as 0.0001653 ± 1e-06 m3/mol in series [2] (1732 kPa, x1 = 0.6867); 0.0001436 ± 8e-07 m3/mol in series [2] (1956 kPa, x1 = 0.777); 0.0001367 ± 6e-07 m3/mol in series [2] (2016 kPa, x1 = 0.8075); 0.0001289 ± 6e-07 m3/mol in series [2] (2064 kPa, x1 = 0.8427); 0.0001265 ± 4e-07 m3/mol in series [2] (2075 kPa, x1 = 0.8572). Further, the viscosity in series [2] (310 kPa, x1 = 0.148) was found to be 12.62 ± 0.31 mPa·s; in series [2] (610 kPa, x1 = 0.276), 11.97 ± 1.3 mPa·s; in series [2] (850 kPa, x1 = 0.364), 9.33 ± 1.6 mPa·s; in series [2] (1130 kPa, x1 = 0.459) it was 8.09 ± 0.18 mPa·s; in series [2] (1470 kPa, x1 = 0.575), 7.06 ± 0.3 mPa·s; in series [2] (2030 kPa, x1 = 0.813), 3.24 ± 0.07 mPa·s.
